Key:
[1] = test system: rat liver microsomes; assay: Microsomal stability assay; type: in vitro ADME; conditions: 97.88 versus 302.00 μL/min/mg
Experimental: Compounds 1 and 3 were studied in a biotransformation assay using rat liver microsomes following procedures described previously. The reagents used in this assay were levallorphan (internal standard) and NADPH-regenerating system, which contained phosphate buffer (pH 7.4), NADP^+, glucose-6-phosphate, and glucose-6-phosphate dehydrogenase. The final protein concentration in the assay was 0.4 mg/mL. Compounds 1 and 3 were tested at a final concentration of 20 μM.
The amount of a parental compound remaining in a solution after biotransformation was monitored using LC-MS/MS as described previously in “Cunninghamella Biotransformation Assay.” Graphs representing ln of percentage of parent compound remaining versus incubation time were drawn to calculate in vitro half-time (t1/2) from the slope of linear regression. To obtain intrinsic clearance (Clint) of a tested compound in rat liver microsomal assay, t1/2 previously calculated was substituted at the equation Clint = [(Vmic/Pmic) × 0.693/t1/2], being Vmic and Pmic the volume of incubation in microliters and the amount of incubated protein in milligrams, respectively.
Agilent 1100 HPLC system (Agilent Technologies, Waldbronn, Germany) equipped with a Xbridge™ C18 analytical column (2.1 × 30 mm, […]; Waters, Dublin, Ireland) was used in the chromatographic separation of LC-MS/MS analysis. An elution gradient of acetonitrile and water, with 0.1% of formic acid, was used as a mobile phase. MS spectra were taken at Applied Biosystems MDS Sciex API 200 triple quadrupole mass analyzer (Concord, Ontario, Canada) with an electrospray ionization (ESI) interface between HPLC and MS.

[2] = DPPH radical scavenging assay; type: biochemical; conditions: DPPH 250 μM, compound at 250 μM, 30 min, 517 nm
Experimental: The capacity of selected 8-methoxy-purine-2,6-dione derivatives to scavenge stable free radical DPPH was assessed. A blank and a triplicate of 10 different concentrations of each compound or of each positive control (gallic and ascorbic acids) were evaluated in the experiment. Aforesaid concentrations of compounds were obtained by dilution from a 1000 μM stock solution in methanol. One hundred microliters of DPPH stock solution were added to each well; later, 100 μL of the corresponding compound dilution were added. Consequently, the final concentration of DPPH radical was 250 μM, whereas the final concentrations of the tested compounds or positive controls were 500, 375, 250, 125, 62.5, 50, 37.5, 25, 12.5, and 6.25 μM. Afterwards, the 96-plate was wrapped with aluminum and stored in the dark 30 min prior to the spectrophotometric measurement at a 517-nm wavelength. The obtained absorbances were used to calculate the percentage of radical scavenged by the action of a compound or of a positive control at each concentration using a formula 100 × (A 0 − A m)/A 0. In this equation A m is the average absorbance of the three triplicates measured at the corresponding concentration and A 0 is the average absorbance of DPPH radical in the absence of the tested substance. Knowing inhibition data at the different concentrations, IC50 was calculated when applicable.

## COc1nc2c(c(=O)n(C)c(=O)n2C)n1CCCC(=O)NCc1ccccc1 [Compound 3, N-benzyl-4-(8-methoxy-1,3-dimethyl-2,6-dioxo-purin-7-yl)butanamide]
[1]
  Clint, fold lower than imipramine: 3.09 fold
[2]
  maximum radical scavenging percentage observed: 6.56%

Source: publication PMC5756575, “In Vitro Biotransformation, Safety, and Chemopreventive Action of Novel 8-Methoxy-Purine-2,6-Dione Derivatives” (Applied Biochemistry and Biotechnology, 2017)
